According to patent US20260226048A1, “MULTI-CYCLIC IRAK AND FLT3 INHIBITING COMPOUNDS AND USES THEREOF” (CHILDREN'S HOSPITAL MEDICAL CENTER, priority 2023, published 2026):

Key:
FLT3 ITD, F691L = target: T1, FLT3 ITD, F691L (Homo sapiens, UniProt P36888, F691L, form not given); assay: DiscoverX KINOMEscan competition binding assay, FLT3 ITD, F691L; conditions: 11-point 3-fold dilution
T1 construct: fused on or other part: DNA tag for qPCR detection (kinase-tagged T7 phage, or made in HEK-293 cells and then tagged with DNA)
T1 sequence (P36888 1-993 F691L): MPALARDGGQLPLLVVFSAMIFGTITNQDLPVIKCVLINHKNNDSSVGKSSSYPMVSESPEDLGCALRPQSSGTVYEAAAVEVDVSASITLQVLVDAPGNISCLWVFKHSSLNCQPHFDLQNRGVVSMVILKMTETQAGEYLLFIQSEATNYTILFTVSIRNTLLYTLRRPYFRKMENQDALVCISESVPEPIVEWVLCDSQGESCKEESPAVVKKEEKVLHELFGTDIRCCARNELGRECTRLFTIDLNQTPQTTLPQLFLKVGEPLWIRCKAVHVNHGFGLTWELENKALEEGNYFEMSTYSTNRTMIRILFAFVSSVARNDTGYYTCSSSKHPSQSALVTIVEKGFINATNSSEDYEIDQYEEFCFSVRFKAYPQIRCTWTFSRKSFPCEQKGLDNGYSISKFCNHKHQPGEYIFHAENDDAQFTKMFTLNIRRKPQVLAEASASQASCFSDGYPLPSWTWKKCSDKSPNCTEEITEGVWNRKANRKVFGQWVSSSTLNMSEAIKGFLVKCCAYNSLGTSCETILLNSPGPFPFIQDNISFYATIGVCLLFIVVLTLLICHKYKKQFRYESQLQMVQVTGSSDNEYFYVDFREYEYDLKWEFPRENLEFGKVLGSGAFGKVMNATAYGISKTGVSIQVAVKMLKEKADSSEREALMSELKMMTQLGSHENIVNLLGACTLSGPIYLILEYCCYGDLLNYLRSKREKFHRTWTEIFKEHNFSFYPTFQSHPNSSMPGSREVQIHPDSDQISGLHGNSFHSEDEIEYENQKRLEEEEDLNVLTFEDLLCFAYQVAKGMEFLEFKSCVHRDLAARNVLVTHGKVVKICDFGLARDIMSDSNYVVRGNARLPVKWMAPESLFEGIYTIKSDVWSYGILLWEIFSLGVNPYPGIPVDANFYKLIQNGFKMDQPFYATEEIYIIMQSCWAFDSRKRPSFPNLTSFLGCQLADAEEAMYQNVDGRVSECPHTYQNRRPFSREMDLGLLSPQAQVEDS
From the text: (§1) […]. […] As a result, the data report thermodynamic interaction affinities (Kd values), rather than IC50 values that are dependent on ATP concentrations. The assay uses a DNA-tagged version of the protein kinase, and an immobilized ligand bound to a solid support. Compounds that directly or indirectly prevent kinase binding to the immobilized ligand reduce the amount of kinase captured on the solid support, which is detected using an ultra-sensitive qPCR method. Affinity constants reported from the assay have been reported to be independent of the immobilized ligand used that is coupled to the solid support (See supplemental information in Fabian, M. A. et. al., (2005) Nat. Biotechnol. 23, 329-336; Wodicka, L. M. et. al., (2010) Chem. Biol. 17, 1241-1249.)
(§2) Kinase-tagged T7 phage strains were prepared in an E. coli host derived from the BL21 strain. E. coli were grown to log-phase and infected with T7 phage and incubated with shaking at 32° C. until lysis. The lysates were centrifuged and filtered to remove cell debris. The remaining kinases were produced in HEK-293 cells and subsequently tagged with DNA for qPCR detection. Streptavidin-coated magnetic beads were treated with biotinylated small molecule ligands for 30 minutes at room temperature to generate affinity resins for kinase assays. The liganded beads were blocked with excess biotin and washed with blocking buffer (SeaBlock (Pierce), 1% BSA, 0.05% Tween 20, 1 mM DTT) to remove unbound ligand and to reduce non-specific binding. […] Test compounds were prepared as 111× stocks in 100% DMSO. Kds were determined using an 11-point 3-fold compound dilution series with three DMSO control points. All compounds for Kd measurements are distributed by acoustic transfer (non-contact dispensing) in 100% DMSO. The compounds were then diluted directly into the assays such that the final concentration of DMSO was 0.9%. All reactions were performed in polypropylene 384-well plates. Each was a final volume of 0.02 mL. […] The kinase concentration in the eluates was measured by qPCR.
(§3) Binding constants (Kds) were calculated with a standard dose-response curve using the Hill equation. The Hill Slope was set to −1. Curves were fitted using a non-linear least square fit with the Levenberg-Marquardt algorithm.

FLT3 N841I = target: T2, FLT3 N841I (Homo sapiens, UniProt P36888, N841I); assay: DiscoverX KINOMEscan competition binding assay, FLT3 N841I; conditions: 11-point 3-fold dilution
T2 construct: purchased DiscoverX (KINOMEscan); host or cells: E. coli BL21-derived host (T7 phage) or HEK-293
T2 sequence (P36888 27-993 N841I): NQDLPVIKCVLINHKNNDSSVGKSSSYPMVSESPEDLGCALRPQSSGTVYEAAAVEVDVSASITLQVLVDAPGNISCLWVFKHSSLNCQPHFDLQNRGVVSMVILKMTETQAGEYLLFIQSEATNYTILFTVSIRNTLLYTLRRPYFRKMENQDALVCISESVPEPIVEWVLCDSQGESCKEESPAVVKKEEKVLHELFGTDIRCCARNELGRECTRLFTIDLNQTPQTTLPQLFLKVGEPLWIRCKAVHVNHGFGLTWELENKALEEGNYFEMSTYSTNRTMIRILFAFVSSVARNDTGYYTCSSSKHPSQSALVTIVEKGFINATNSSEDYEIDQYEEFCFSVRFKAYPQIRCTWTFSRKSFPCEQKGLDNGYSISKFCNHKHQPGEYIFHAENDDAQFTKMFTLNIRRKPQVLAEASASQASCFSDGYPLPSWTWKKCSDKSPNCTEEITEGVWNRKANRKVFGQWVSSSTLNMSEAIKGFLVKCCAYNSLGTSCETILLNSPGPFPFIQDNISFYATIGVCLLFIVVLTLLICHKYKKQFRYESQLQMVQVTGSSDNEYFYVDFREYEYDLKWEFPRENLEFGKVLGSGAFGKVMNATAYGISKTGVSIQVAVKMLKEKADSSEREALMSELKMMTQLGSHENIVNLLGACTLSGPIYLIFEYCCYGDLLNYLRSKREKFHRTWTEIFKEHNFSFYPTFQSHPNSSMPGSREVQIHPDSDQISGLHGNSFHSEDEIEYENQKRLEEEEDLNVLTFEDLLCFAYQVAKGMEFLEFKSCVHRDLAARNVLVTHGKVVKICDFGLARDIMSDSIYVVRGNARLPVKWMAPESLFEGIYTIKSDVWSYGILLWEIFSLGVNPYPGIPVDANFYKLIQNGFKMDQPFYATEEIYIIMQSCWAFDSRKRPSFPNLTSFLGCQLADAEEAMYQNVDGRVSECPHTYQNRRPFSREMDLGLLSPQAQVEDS
From the text: as §1, §2, §3

**Q.** How did the Kd (FLT3 ITD, F691L) turn out when `COc1cc2ncc(-c3nc(N[C@H]4CNCC[C@@H]4F)ncc3F)n2nc1C1CC1` [Compound 1a, 4-(6-cyclopropyl-7-methoxyimidazo[1,2-b]pyridazin-3-yl)-5-fluoro-N-((3S,4S)-4-fluoropiperidin-3-yl)pyrimidin-2-amine] was run?
**A.** < 0.17 nM

**Q.** What about the Kd (FLT3 N841I) of the same compound?
**A.** < 0.17 nM

**Q.** Which results are given for `FC(F)COc1cc2ncc(-c3ccnc(N[C@H]4CNCC[C@@H]4F)n3)n2nc1C1CC1` [Compound 4a, 4-(6-cyclopropyl-7-(2,2-difluoroethoxy)imidazo[1,2-b]pyridazin-3-yl)-N-((3 S,4S)-4-fluoropiperidin-3-yl)pyrimidin-2-amine]?
**A.** Kd (FLT3 ITD, F691L): < 0.17 nM; Kd (FLT3 N841I): 0.88 nM

**Q.** How did the Kd (FLT3 ITD, F691L) turn out when `COc1cc2ncc(-c3nc(N[C@H]4CNCC[C@@H]4F)ncc3F)n2nc1C(C)(C)O` [Compound 45a, 2-(3-(5-fluoro-2-(((3S,4S)-4-fluoropiperidin-3-yl)amino)pyrimidin-4-yl)-7-methoxyimidazo[1,2-b]pyridazin-6-yl)propan-2-ol] was run?
**A.** 0.19 nM

**Q.** And the Kd (FLT3 N841I)?
**A.** 1.1 nM

**Q.** With `CC(C)(O)c1ccc2ncc(-c3nc(N[C@H]4CNCC[C@@H]4F)ncc3F)n2c1` [Compound 46a, 2-(3-(5-fluoro-2-(((3S,4S)-4-fluoropiperidin-3-yl)amino)pyrimidin-4-yl)imidazo[1,2-a]pyridin-6-yl)propan-2-ol] as the compound, how does the Kd (FLT3 ITD, F691L) read?
**A.** 0.22 nM

**Q.** And the Kd (FLT3 N841I)?
**A.** 3.2 nM

**Q.** Which Kd (FLT3 ITD, F691L) does the source give for `COc1cc2ncc(-c3nc(N[C@H]4CNCC[C@@H]4F)ncc3F)n2nc1C1COC1` [Compound 92a, 5-fluoro-N-((3S,4S)-4-fluoropiperidin-3-yl)-4-(7-methoxy-6-(oxetan-3-yl)imidazo[1,2-b]pyridazin-3-yl)pyrimidin-2-amine] here?
**A.** < 0.17 nM

**Q.** What about the Kd (FLT3 N841I) of the same compound?
**A.** 0.18 nM

**Q.** Which Kd (FLT3 ITD, F691L) does the source give for `CC(C)(O)c1cn2c(-c3nc(N[C@H]4CNCC[C@@H]4F)ncc3F)cnc2cn1` [Compound 100a, 2-(3-(5-fluoro-2-(((3S,4S)-4-fluoropiperidin-3-yl)amino)pyrimidin-4-yl)imidazo[1,2-a]pyrazin-6-yl)propan-2-ol] here?
**A.** 3.4 nM

**Q.** And the Kd (FLT3 N841I)?
**A.** 16 nM

**Q.** Which results are given for `COc1cc2ncc(-c3nc(N[C@H]4CNCC[C@@H]4F)ncc3F)n2nc1N1CCCS1(=O)=O` [Compound 112a, 2-(3-(5-fluoro-2-(((3S,4S)-4-fluoropiperidin-3-yl)amino)pyrimidin-4-yl)-7-methoxyimidazo[1,2-b]pyridazin-6-yl)isothiazolidine 1,1-dioxide]?
**A.** Kd (FLT3 ITD, F691L): < 0.17 nM; Kd (FLT3 N841I): 0.2 nM
